Results as given in PMC5542762 (ChemistryOpen, 2017).
Structures can show the parent of a compound that is named as a salt.

How the values were obtained:
EcTAL = target: T1, EcTAL (Escherichia coli, UniProt P04968); experiment: HPLC of remaining L-threonine after FDAA derivatization; type: biochemical; settings: L-threonine 100 mM, pyridoxal phosphate 10 μM; Na2CO3-NaHCO3 100 mM, pH 9.0, 30 °C
T1 sequence (P04968 1-514): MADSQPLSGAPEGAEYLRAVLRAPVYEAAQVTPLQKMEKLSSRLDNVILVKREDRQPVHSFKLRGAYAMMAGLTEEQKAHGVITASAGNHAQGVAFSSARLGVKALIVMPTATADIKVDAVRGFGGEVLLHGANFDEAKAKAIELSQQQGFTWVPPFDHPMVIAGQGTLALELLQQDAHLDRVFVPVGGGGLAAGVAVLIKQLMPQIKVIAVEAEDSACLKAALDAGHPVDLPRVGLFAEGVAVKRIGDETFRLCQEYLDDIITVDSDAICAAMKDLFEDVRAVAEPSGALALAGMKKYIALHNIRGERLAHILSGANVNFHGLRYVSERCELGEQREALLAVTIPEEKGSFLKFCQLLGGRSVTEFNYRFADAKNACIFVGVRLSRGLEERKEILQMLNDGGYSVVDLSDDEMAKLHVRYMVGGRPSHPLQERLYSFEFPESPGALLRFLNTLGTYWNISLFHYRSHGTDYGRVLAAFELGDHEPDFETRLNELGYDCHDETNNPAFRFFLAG

PFDH = target: T2, PFDH (Pseudomonas sp. 101, UniProt P33160); experiment: NAD+ reduction at […] nm, 96-well plate; type: biochemical; settings: sodium formate 20 mM, NAD+ 0.50 mM; Na2CO3-NaHCO3 100 mM, pH 9.0, room temperature
T2 sequence (P33160 2-401): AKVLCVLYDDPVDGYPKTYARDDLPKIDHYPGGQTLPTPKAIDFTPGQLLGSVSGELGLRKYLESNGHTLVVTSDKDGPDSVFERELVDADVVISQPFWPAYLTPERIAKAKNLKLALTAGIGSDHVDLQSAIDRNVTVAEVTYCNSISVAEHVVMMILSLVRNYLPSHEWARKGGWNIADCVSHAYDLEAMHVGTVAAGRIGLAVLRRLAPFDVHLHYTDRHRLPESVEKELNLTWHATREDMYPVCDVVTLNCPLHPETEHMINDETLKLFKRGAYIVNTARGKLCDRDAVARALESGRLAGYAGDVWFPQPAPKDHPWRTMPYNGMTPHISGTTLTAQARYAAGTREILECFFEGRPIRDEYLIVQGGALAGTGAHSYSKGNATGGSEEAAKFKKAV

Row | SMILES | HPLC of remaining L-threonine after FDAA derivatization (EcTAL) | NAD+ reduction at 340 nm, 96-well plate (PFDH)
1 | C[C@@H](O)[C@H](N)C(=O)O [L-threonine] | The activity of EcTAL toward L‐threonine was determined by measuring the decrease of threonine | –
2 | O=CO [sodium formate] | – | the activity of the FDH toward the oxidation of formate were determined
